Data published in patent publication US20230053540A1, “TREATMENT OF LIVER INJURY” (Massachusetts Institute of Technology, priority 2019, published 2023).

System: hepatocytes
Experiment: Seq-Well scRNA-Seq of hepatocytes after APAP overdose (signature scores, DEG vs untreated)
Assay type: in vivo, mouse
Details: APAP vs UT; A24logFC

Question: CC(=O)Nc1ccc(O)cc1 [APAP, acetaminophen] was tested. Which “Ddx3y logFC” value did it give?
Answer: Its value is 0.3395.

Question: What about the “Deb1 logFC” value of the same molecule?
Answer: Its value is −0.267.

Question: What about the “Dera logFC” value of the same molecule?
Answer: The value was −0.2674.

Question: And the “Diap1 logFC” value?
Answer: The value was 0.3259.

Question: And the “Dnaja2 logFC” value?
Answer: Its value is 0.3723.

Question: What about the “Dnajc5 logFC” value of the same molecule?
Answer: Its value is 0.3265.

Question: What about the “Dsp logFC” value of the same molecule?
Answer: Its value is 0.2655.

Question: What about the “Eea1 logFC” value of the same molecule?
Answer: Its value is 0.2612.

Question: And the “Eif4a1 logFC” value?
Answer: Its value is 0.2519.

Question: What about the “Eif4ebp1 logFC” value of the same molecule?
Answer: Its value is 0.2617.

Question: What about the “Eifia logFC” value of the same molecule?
Answer: The value was 0.3147.

Question: And the “Eifib logFC” value?
Answer: The value was 0.2503.

Question: And the “Eific logFC” value?
Answer: Its value is 0.302.

Question: What about the “Elovl5 logFC” value of the same molecule?
Answer: Its value is 0.3352.

Question: What about the “Fam195a logFC” value of the same molecule?
Answer: Its value is −0.2649.

Question: And the “Fasn logFC” value?
Answer: The value was 0.2914.

Question: And the “Fbxo21 logFC” value?
Answer: Its value is −0.2631.

Question: And the “Ftsj3 logFC” value?
Answer: Its value is 0.2552.

Question: And the “Gadd45a logFC” value?
Answer: The value was 0.2829.

Question: And the “Gars logFC” value?
Answer: Its value is 0.2576.

Question: What about the “Gcat logFC” value of the same molecule?
Answer: The value was −0.2587.

Question: And the “Gcgr logFC” value?
Answer: The value was −0.2576.

Question: And the “Gda logFC” value?
Answer: Its value is 0.6275.

Question: And the “Gldc logFC” value?
Answer: The value was 0.2802.

Question: And the “Glul logFC” value?
Answer: Its value is 0.3795.

Question: What about the “Gm5424 logFC” value of the same molecule?
Answer: The value was 0.2698.

Question: What about the “Gm20594 logFC” value of the same molecule?
Answer: Its value is −0.36.

Question: And the “Gnai2 logFC” value?
Answer: The value was 1.

Question: And the “Gnas logFC” value?
Answer: Its value is 0.2589.

Question: And the “Gsr logFC” value?
Answer: Its value is 0.4128.

Question: What about the “Gtf2a2 logFC” value of the same molecule?
Answer: Its value is 0.2792.

Question: What about the “H2-D1 logFC” value of the same molecule?
Answer: The value was 0.2865.

Question: And the “Hectd1 logFC” value?
Answer: The value was 0.308.

Question: What about the “Herc1 logFC” value of the same molecule?
Answer: Its value is 0.2562.

Question: What about the “Herc4 logFC” value of the same molecule?
Answer: Its value is 0.2675.

Question: What about the “Hipk1 logFC” value of the same molecule?
Answer: The value was 0.2916.

Question: And the “Hnrnpu logFC” value?
Answer: Its value is 0.3394.

Question: And the “Hpn logFC” value?
Answer: Its value is −0.2686.

Question: And the “Hsbp1 logFC” value?
Answer: The value was −0.2867.

Question: And the “Iah1 logFC” value?
Answer: The value was −0.293.

Question: And the “Impad1 logFC” value?
Answer: The value was 0.3227.

Question: And the “Ivns1abp logFC” value?
Answer: Its value is 0.3566.

Question: What about the “Kdm5a logFC” value of the same molecule?
Answer: Its value is 0.3514.

Question: What about the “Ldlr logFC” value of the same molecule?
Answer: Its value is 0.282.

Question: What about the “Lipc logFC” value of the same molecule?
Answer: Its value is −0.2548.

Question: And the “Magi3 logFC” value?
Answer: The value was 0.27.

Question: And the “Map3k2 logFC” value?
Answer: The value was 0.2518.

Question: What about the “Mapkapk2 logFC” value of the same molecule?
Answer: Its value is 0.3138.

Question: What about the “Megf9 logFC” value of the same molecule?
Answer: The value was 0.2769.

Question: And the “Mgea5 logFC” value?
Answer: The value was 0.3263.

Question: And the “Mrpl11 logFC” value?
Answer: The value was −0.2685.

Question: And the “Mrpl15 logFC” value?
Answer: The value was −0.2912.

Question: And the “Mrpl20 logFC” value?
Answer: Its value is −0.3093.

Question: And the “Mrpl28 logFC” value?
Answer: The value was −0.2699.

Question: What about the “Mrpl34 logFC” value of the same molecule?
Answer: Its value is −0.2838.

Question: And the “Mrpl41 logFC” value?
Answer: Its value is −0.2674.

Question: What about the “Mrpl42 logFC” value of the same molecule?
Answer: The value was −0.2845.

Question: And the “Mrps12 logFC” value?
Answer: The value was −0.2504.

Question: What about the “Mvd logFC” value of the same molecule?
Answer: Its value is −0.2704.

Question: And the “Myeov2 logFC” value?
Answer: The value was −0.3052.

Question: And the “Myo1b logFC” value?
Answer: Its value is 0.2624.

Question: And the “Naa50 logFC” value?
Answer: The value was 0.2657.

Question: And the “Ndufa5 logFC” value?
Answer: The value was −0.252.

Question: And the “Nek7 logFC” value?
Answer: The value was 0.2911.

Question: What about the “Net1 logFC” value of the same molecule?
Answer: The value was 0.3479.

Question: And the “Nploc4 logFC” value?
Answer: The value was 0.2918.

Question: What about the “Nqo2 logFC” value of the same molecule?
Answer: The value was −0.2678.

Question: And the “Nucks1 logFC” value?
Answer: The value was 0.3558.

Question: What about the “Nudt4 logFC” value of the same molecule?
Answer: Its value is 0.2542.

Question: What about the “Pa2g4 logFC” value of the same molecule?
Answer: Its value is 0.2893.

Question: What about the “Papss2 logFC” value of the same molecule?
Answer: The value was −0.2545.

Question: And the “Pcm1 logFC” value?
Answer: Its value is 0.2654.

Question: What about the “Pde3b logFC” value of the same molecule?
Answer: Its value is −0.259.

Question: What about the “Pdzd8 logFC” value of the same molecule?
Answer: The value was 0.2863.

Question: And the “Pet100 logFC” value?
Answer: The value was −0.28.

Question: What about the “Pgls logFC” value of the same molecule?
Answer: The value was −0.2747.

Question: And the “Pi4k2a logFC” value?
Answer: Its value is 0.3536.

Question: And the “Pkp4 logFC” value?
Answer: The value was 0.323.

Question: And the “Plbd2 logFC” value?
Answer: The value was 0.2649.

Question: And the “Plcxd2 logFC” value?
Answer: Its value is −0.2752.

Question: And the “Pmpcb logFC” value?
Answer: Its value is −0.2636.

Question: What about the “Ppip5k2 logFC” value of the same molecule?
Answer: The value was 0.3209.

Question: What about the “Ppm1g logFC” value of the same molecule?
Answer: The value was 0.2522.

Question: What about the “Proc logFC” value of the same molecule?
Answer: The value was −0.2707.

Question: What about the “Prpf19 logFC” value of the same molecule?
Answer: The value was 0.2588.

Question: And the “Psap logFC” value?
Answer: The value was 0.361.

Question: And the “Psma1 logFC” value?
Answer: Its value is −0.2567.

Question: And the “Psma6 logFC” value?
Answer: Its value is −0.3035.

Question: And the “Ptpmt1 logFC” value?
Answer: The value was −0.256.

Question: What about the “Ptpn11 logFC” value of the same molecule?
Answer: The value was 0.2778.

Question: And the “Pvrl2 logFC” value?
Answer: The value was −0.2613.

Question: What about the “Rab6a logFC” value of the same molecule?
Answer: Its value is 0.3234.

Question: What about the “Rabac1 logFC” value of the same molecule?
Answer: The value was −0.266.

Question: What about the “Rangap1 logFC” value of the same molecule?
Answer: The value was 0.2962.

Question: And the “Rap1b logFC” value?
Answer: The value was 0.3408.

Question: What about the “Rassf3 logFC” value of the same molecule?
Answer: The value was 0.2912.

Question: And the “Rbm39 logFC” value?
Answer: Its value is 0.2657.

Question: And the “Riok3 logFC” value?
Answer: The value was 0.2916.

Question: What about the “Rmnd5a logFC” value of the same molecule?
Answer: Its value is 0.3189.

Question: And the “Rnf169 logFC” value?
Answer: Its value is 0.334.

Question: And the “Rock1 logFC” value?
Answer: Its value is 0.2608.
